Measurements published in paper PMC11861906, “Structural basis for lipid-mediated activation of G protein-coupled receptor GPR55” (Nature Communications, 2025).

Assays:
GPR55 = tested on: GPR55; set-up: method as in PMID 21534610; conditions: β-arrestin recruitment assays; read-out: reported potency; cited from earlier work
[1] = target: GPR55 mutant N171Q (Gα13) (Homo sapiens, UniProt Q9Y2T6, N171Q); assay: BRET² G protein dissociation assay, GPR55 N171Q with Gα13; format: cell-based
Text: (§1) To validate the functionality of the GPR55 cryo-EM construct, we conducted bioluminescence resonance energy transfer 2 (BRET²)-based G protein dissociation assays[46],[47] using an engineered heterotrimeric G13 protein. The N-terminal GFP fusion of the receptor was additionally modified with a G67A mutation to disrupt fluorescence properties. We employed human embryonic kidney (HEK) cells overexpressing wt or mutant GPR55 together with Gβ3, Gγ9-GFP, and Gα13 tagged with Renilla luciferase 8 (Rluc8).
(§2) G protein dissociation assays were performed according to the original protocols of the TRUPATH BRET² assay[47],[87] but with subtle modifications as previously described[61],[88],[89]. All reagents and cells were obtained from Thermo Fisher Scientific unless indicated otherwise. The coding sequences for the G protein biosensors[47] (Gα12-Rluc8, Gα13-Rluc8, wt Gβ3, and Gγ9-GFP), the wt GPR55, the construct used for cryo-EM (with GFP bearing a G67A mutation to disrupt fluorescence properties[48] for BRET² assays), GPR55 binding pocket mutants (G152^4.56F, G152^4.56W, N171^ECL2Q, N171^ECL2A, T176^5.33A, R253^6.62A), and the wt TBXA2R were codon-optimized for Homo sapiens, gene-synthesized, and sub-cloned into pcDNA^TM3.1(+) between NheI and HindIII restriction sites by GeneArt (Thermo Fisher Scientific). […] Freshly grown cells were washed with Dulbecco’s Balanced Salt Solution (DPBS, cat. #14200075) and detached using trypsin-ethylenediaminetetraacetic acid (trypsin-EDTA) (cat. #25300-062). Then, the cells were reconstituted to 500,000 cells per mL with fresh medium, and 1,000,000 cells were seeded into each well of a 6-well plate. After 3 h incubation at 37 °C and 5% CO2, adherent cells were transfected with 600 ng DNA (1:1:1:1 ratio of plasmid DNA for GPR55, wt Gβ3, Gγ9-GFP, and Gα12-Rluc8 or Gα13-Rluc8). Plasmid DNA was mixed with 1.5 µL Lipofectamine^TM 2000 (cat. #11668027) in Opti-MEM^TM medium (cat. #31985062) and incubated for 20 min. Then, the mixture was added to each well of the 6-well plate following 24 h incubation at 37 °C and 5% CO2. Transfected cells were washed with DPBS, detached using EDTA (Versene, cat. #15040066), and reconstituted into fresh medium at 500,000 cells mL^−1. From this suspension, 50,000 cells were seeded into each well of a white-bottom 96-well plate (Nunc^TM MicroWell^TM 96 wells, cat. #136101) following overnight incubation at 37 °C and 5% CO2. Then, the adherent cells were washed with assay medium [Hank’s balanced salt solution (HBSS, cat. #14065056) plus 20 mM HEPES pH 7.4 (cat. #15630056)] and finally reconstituted into 50 µL of the same medium. […] Methoxy e-Coelenterazine was used as luciferase substrate (Prolume Purple, NanoLight Technology, cat. #369), reconstituted at 1 mM in methanol and diluted to 37.5 µM with assay buffer (7.5 µM final assay concentration). The assay was started by the addition of 20 µL luciferase substrate to each well of the assay plate using a Multidrop^TM Combi reagent dispenser (Thermo Fisher Scientific), followed by 5 min incubation at room temperature. Then, 30 µL of agonist dilutions or DMSO control was added (final DMSO concentration 1.5%), followed by an additional 5 min incubation at room temperature. BRET² measurements were performed with a PHERAstar® FSX microplate reader (BMG LABTECH) using a BRET² filter (donor emission 370–450 nm, acceptor emission 500–530 nm) at the maximum fluorescence gain of 3600. BRET² ratios were calculated by dividing GFP emission signals from Rluc8 emission counts. Buffer-DMSO controls were subtracted from each data point to calculate ΔBRET² ratios.

[2] = target: GPR55 mutant G152W (Gα13) (Homo sapiens, UniProt Q9Y2T6, G152W); assay: BRET² G protein dissociation assay, GPR55 G152W with Gα13; format: cell-based
Text: as §1, §2

[3] = target: GPR55 mutant G152F (Gα13) (Homo sapiens, UniProt Q9Y2T6, G152F); assay: BRET² G protein dissociation assay, GPR55 G152F with Gα13; format: cell-based
Text: as §1, §2

GPR55 mutant G152F (Gα13), sequence (Q9Y2T6 whole entry G152F): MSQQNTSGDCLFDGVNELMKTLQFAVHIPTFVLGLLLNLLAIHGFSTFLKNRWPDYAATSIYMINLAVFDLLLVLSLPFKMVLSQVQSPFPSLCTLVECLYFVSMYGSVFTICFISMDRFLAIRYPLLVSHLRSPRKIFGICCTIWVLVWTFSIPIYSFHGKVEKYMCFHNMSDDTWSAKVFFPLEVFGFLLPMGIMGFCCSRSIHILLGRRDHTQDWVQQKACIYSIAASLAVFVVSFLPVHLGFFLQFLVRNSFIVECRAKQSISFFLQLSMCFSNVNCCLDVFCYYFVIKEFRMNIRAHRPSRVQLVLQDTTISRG
GPR55 mutant G152F (Gα13), sequence (Q14344 whole entry partner): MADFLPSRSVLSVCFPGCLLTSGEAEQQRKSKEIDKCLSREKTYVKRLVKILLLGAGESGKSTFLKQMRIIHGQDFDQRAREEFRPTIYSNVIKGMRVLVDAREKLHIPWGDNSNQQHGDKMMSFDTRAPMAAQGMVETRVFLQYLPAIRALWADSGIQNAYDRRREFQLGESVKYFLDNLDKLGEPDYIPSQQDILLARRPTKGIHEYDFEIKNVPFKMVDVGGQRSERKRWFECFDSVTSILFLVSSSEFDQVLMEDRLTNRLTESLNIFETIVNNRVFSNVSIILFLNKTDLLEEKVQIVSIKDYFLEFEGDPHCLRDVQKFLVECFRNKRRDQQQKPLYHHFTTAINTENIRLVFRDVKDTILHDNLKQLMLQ
GPR55 mutant G152F (Gα13), sequence (P16520 whole entry partner): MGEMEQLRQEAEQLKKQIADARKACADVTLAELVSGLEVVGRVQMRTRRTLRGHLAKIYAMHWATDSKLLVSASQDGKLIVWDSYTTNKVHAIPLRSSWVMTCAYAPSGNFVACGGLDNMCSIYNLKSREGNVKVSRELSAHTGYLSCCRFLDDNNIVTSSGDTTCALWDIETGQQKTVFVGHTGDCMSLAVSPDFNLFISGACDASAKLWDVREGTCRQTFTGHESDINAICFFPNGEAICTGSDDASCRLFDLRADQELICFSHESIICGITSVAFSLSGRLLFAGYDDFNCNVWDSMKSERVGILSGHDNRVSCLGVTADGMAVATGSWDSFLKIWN
GPR55 mutant G152F (Gα13), sequence (O14610 1-66 partner limits assumed): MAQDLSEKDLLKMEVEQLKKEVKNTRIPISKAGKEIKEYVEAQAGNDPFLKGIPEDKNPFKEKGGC
GPR55 mutant N171Q (Gα13), sequence (Q9Y2T6 whole entry N171Q, the tested form may be a part): as the sequence (Q9Y2T6 whole entry G152F) above, with F152G, N171Q counted along it
GPR55 mutant N171Q (Gα13), sequence (Q14344 whole entry partner, the tested form may be a part): as the sequence (Q14344 whole entry partner) above
GPR55 mutant N171Q (Gα13), sequence (P16520 whole entry partner, the tested form may be a part): as the sequence (P16520 whole entry partner) above
GPR55 mutant N171Q (Gα13), sequence (O14610 1-66 partner limits assumed): as the sequence (O14610 1-66 partner limits assumed) above
GPR55 mutant G152W (Gα13), sequence (Q9Y2T6 whole entry G152W): as the sequence (Q9Y2T6 whole entry G152F) above, with F152W counted along it
GPR55 mutant G152W (Gα13), sequence (Q14344 whole entry partner): as the sequence (Q14344 whole entry partner) above
GPR55 mutant G152W (Gα13), sequence (P16520 whole entry partner): as the sequence (P16520 whole entry partner) above
GPR55 mutant G152W (Gα13), sequence (O14610 1-66 partner limits assumed): as the sequence (O14610 1-66 partner limits assumed) above

Mean (plotted) BRET² response, GPR55-N171Q-G13 ([1]; Concentration 300 pM): -0.001828 | Mean (plotted) BRET² response, GPR55-N171Q-G13 ([1]; Concentration 1e-9 M): -0.002418 | Mean (plotted) BRET² response, GPR55-N171Q-G13 ([1]; Concentration 3e-9 M): -0.001477 | Mean (plotted) BRET² response, GPR55-N171Q-G13 ([1]; Concentration 1e-8 M): -0.0001092 | Mean (plotted) BRET² response, GPR55-N171Q-G13 ([1]; Concentration 3e-8 M): -0.001125 | Mean (plotted) BRET² response, GPR55-N171Q-G13 ([1]; Concentration 1e-7 M): -0.006817 | Mean (plotted) BRET² response, GPR55-N171Q-G13 ([1]; Concentration 3e-7 M): -0.01585 | Mean (plotted) BRET² response, GPR55-N171Q-G13 ([1]; Concentration 1e-6 M): -0.03451 | Mean (plotted) BRET² response, GPR55-N171Q-G13 ([1]; Concentration 3e-6 M): -0.05647 | Mean (plotted) BRET² response, GPR55-N171Q-G13 ([1]; Concentration 1e-5 M): -0.07313 | Mean (plotted) BRET² response, GPR55-N171Q-G13 ([1]; Concentration 3e-5 M): -0.08032 | EC50 ([1]; GPR55 N171Q, Gα13): 1.41 µM | Emax at 30 µM ([1]; GPR55 N171Q, Gα13, 30 µM ligand, same normalization, read-out: Efficacy ± SEM (%)): 76 ± 2% | reduction of potency compared to wt GPR55 ([1]; N171Q mutant): 32 fold | Mean (plotted) BRET² response, GPR55-G152W-G13 ([2]; Concentration 300 pM): -0.02434 | Mean (plotted) BRET² response, GPR55-G152W-G13 ([2]; Concentration 1e-9 M): -0.04124 | Mean (plotted) BRET² response, GPR55-G152W-G13 ([2]; Concentration 3e-9 M): -0.05947 | Mean (plotted) BRET² response, GPR55-G152W-G13 ([2]; Concentration 1e-8 M): -0.07141 | Mean (plotted) BRET² response, GPR55-G152W-G13 ([2]; Concentration 3e-8 M): -0.07973 | Mean (plotted) BRET² response, GPR55-G152W-G13 ([2]; Concentration 1e-7 M): -0.08343 | Mean (plotted) BRET² response, GPR55-G152W-G13 ([2]; Concentration 3e-7 M): -0.08701 | Mean (plotted) BRET² response, GPR55-G152W-G13 ([2]; Concentration 1e-6 M): -0.08751 | Mean (plotted) BRET² response, GPR55-G152W-G13 ([2]; Concentration 3e-6 M): -0.0887 | Mean (plotted) BRET² response, GPR55-G152W-G13 ([2]; Concentration 1e-5 M): -0.09176 | Mean (plotted) BRET² response, GPR55-G152W-G13 ([2]; Concentration 3e-5 M): -0.09408 | increase of potency compared to wt GPR55 ([2]; G152W mutant): 34 fold | Emax at 30 µM ([2]; GPR55 G152W, Gα13, 30 µM ligand, same normalization, read-out: Efficacy ± SEM (%)): 107 ± 1% | EC50 ([2]; GPR55 G152W, Gα13, calculated by extrapolating ΔBRET² ratios for concentrations <0.3 nM): 0.00135 µM | Mean (plotted) BRET² response, GPR55-G152F-G13 ([3]; Concentration 300 pM): -0.004043 | Mean (plotted) BRET² response, GPR55-G152F-G13 ([3]; Concentration 1e-9 M): -0.005951 | Mean (plotted) BRET² response, GPR55-G152F-G13 ([3]; Concentration 3e-9 M): -0.01719 | Mean (plotted) BRET² response, GPR55-G152F-G13 ([3]; Concentration 1e-8 M): -0.03259 | Mean (plotted) BRET² response, GPR55-G152F-G13 ([3]; Concentration 3e-8 M): -0.04406 | Mean (plotted) BRET² response, GPR55-G152F-G13 ([3]; Concentration 1e-7 M): -0.05628 | Mean (plotted) BRET² response, GPR55-G152F-G13 ([3]; Concentration 3e-7 M): -0.06251 | Mean (plotted) BRET² response, GPR55-G152F-G13 ([3]; Concentration 1e-6 M): -0.06831 | Mean (plotted) BRET² response, GPR55-G152F-G13 ([3]; Concentration 3e-6 M): -0.07057 | Mean (plotted) BRET² response, GPR55-G152F-G13 ([3]; Concentration 1e-5 M): -0.07761 | Mean (plotted) BRET² response, GPR55-G152F-G13 ([3]; Concentration 3e-5 M): -0.07919 | reduction of potency compared to wt GPR55 ([3]; G152F mutant): remained unchanged | EC50 ([3]; GPR55 G152F, Gα13): 0.0219 µM | Emax at 30 µM ([3]; GPR55 G152F, Gα13, 30 µM ligand, same normalization, read-out: Efficacy ± SEM (%)): 108 ± 3%
Structure (SMILES): Cc1cccc(N2CCN(C(=O)c3cc(S(=O)(=O)N(C)C)ccc3N3CCCC3)CC2)c1C [ML184, 3-[[4-(2,3-dimethylphenyl)-1-piperazinyl]carbonyl]-N,N-dimethyl-4-(1-pyrrolidinyl)benzenesulfonamide]
EC50 (GPR55): 0.26 µM
